Experimental data taken from US9834534B2, “Neuraminidase inhibitor compounds, compositions and methods for the use thereof in anti-viral treatments” (THE UNIVERSITY OF BRITISH COLUMBIA, priority 2009, dated 2017).
Values joined by “and” are separate entries in the source; they are usually repeats but may differ in a detail not shown here. Equal values may be shown once. Read-outs that look alike come from different tables or passages of the source.

Key:
H1N1 = H1N1 (Influenza A virus (H1N1), UniProt Q289M4)
H1N1, sequence (Q289M4 whole entry, looked up): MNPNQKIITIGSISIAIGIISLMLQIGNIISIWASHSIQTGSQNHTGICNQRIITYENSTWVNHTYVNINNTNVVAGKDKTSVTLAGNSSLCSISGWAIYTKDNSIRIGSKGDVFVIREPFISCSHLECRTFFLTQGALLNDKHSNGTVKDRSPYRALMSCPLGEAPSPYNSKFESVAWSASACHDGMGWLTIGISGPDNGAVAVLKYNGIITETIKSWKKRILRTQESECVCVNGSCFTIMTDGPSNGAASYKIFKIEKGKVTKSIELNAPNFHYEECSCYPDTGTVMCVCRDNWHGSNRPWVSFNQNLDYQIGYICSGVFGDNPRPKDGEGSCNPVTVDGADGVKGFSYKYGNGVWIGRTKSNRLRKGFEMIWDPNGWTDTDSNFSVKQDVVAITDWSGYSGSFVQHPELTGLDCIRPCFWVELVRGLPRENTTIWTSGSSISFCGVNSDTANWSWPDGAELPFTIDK

H1N1 OsR = H1N1 OsR (Influenza A virus (H1N1), UniProt Q289M4); details: for ki: pH 7.6
H1N1 OsR, sequence (Q289M4 whole entry, looked up): as above

[1] = molecular target: influenza sialidase (subtype N9) (Influenza A virus, UniProt P03472); assay: biochemical; assay type: biochemical; details: for Kd / Ki / khyd: 30° C., pH 7.6
influenza sialidase (subtype N9), sequence (P03472 whole entry, looked up): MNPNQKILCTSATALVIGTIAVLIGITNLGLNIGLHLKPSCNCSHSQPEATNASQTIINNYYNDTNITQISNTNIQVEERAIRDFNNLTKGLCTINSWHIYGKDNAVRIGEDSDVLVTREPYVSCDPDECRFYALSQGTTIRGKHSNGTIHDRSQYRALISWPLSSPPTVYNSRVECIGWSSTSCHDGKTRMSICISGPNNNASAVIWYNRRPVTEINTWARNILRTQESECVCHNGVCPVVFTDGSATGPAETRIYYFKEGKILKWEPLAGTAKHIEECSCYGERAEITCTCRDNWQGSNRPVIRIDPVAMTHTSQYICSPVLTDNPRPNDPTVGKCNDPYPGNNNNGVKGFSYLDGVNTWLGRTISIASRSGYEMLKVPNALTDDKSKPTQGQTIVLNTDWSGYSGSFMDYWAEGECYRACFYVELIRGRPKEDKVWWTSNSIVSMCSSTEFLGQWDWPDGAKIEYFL

A/New Caledonia (H1N1) = assay type: cell-based, influenza A virus
[2] = 1 mg/kg; for % weight loss mean +/− SD: mouse, in vivo; for number of animals remaining: n = 5
[3] = system: influenza A/Brisbane/10/2007 (H3N2); assay: microbe, parasite or virus in culture; assay type: cell-based, influenza A virus
A/Denver (H1N1) = assay type: cell-based, influenza A virus
[4] = system: influenza B/Florida/04/06; assay type: cell-based; details: for Relative activity: relative to Zanamivir
MDCK cells = details: dog
[5] = system: influenza A/Denver/1/57 (H1N1); assay: microbe, parasite or virus in culture; assay type: cell-based, influenza A virus
[6] = system: influenza B/HongKong/5/72; assay: microbe, parasite or virus in culture; assay type: cell-based, influenza B virus
[7] = system: influenza A virus, A/HK/1/68 (H3N2); set-up: species or system Balb/C mice (Mus musculus); details: mouse, in vivo
A/Brisbane NML (H3N2) = assay type: cell-based, influenza A virus
B/Perth wt = assay: microbe, parasite or virus in culture; assay type: cell-based; details: Influenza B virus, read-out: sensitivity to inhibitors, B/Perth wt
sH1N1/08 wt = assay: microbe, parasite or virus in culture; assay type: cell-based; details: Influenza A virus, read-out: IC50 sH1N1/08 wt
[8] = system: Auckland pH1N1 wt (A/Auckland/3/2009); assay: microbe, parasite or virus in culture; assay type: cell-based; details: Influenza A virus, read-out: IC50 Auckland pH1N1 wt
Fukui H3N2 wt = assay: microbe, parasite or virus in culture; assay type: cell-based; details: Influenza A virus, H3N2, read-out: IC50 Fukui H3N2 wt
[9] = system: B/Florida wt (B/Florida/4/2006); assay: microbe, parasite or virus in culture; assay type: cell-based; details: Influenza B virus, read-out: IC50 B/Florida wt
sH1N1/01 wt = assay: microbe, parasite or virus in culture; assay type: cell-based; details: Influenza A virus, read-out: IC50 sH1N1/01 wt
[10] = system: Sol Isl sH1N1 wt (A/Solomon Islands/3/2006); assay: microbe, parasite or virus in culture; assay type: cell-based, influenza A virus; details: read-out: IC50 Sol Isl sH1N1 wt
[11] = Balb/C, mouse, in vivo, 1 mg/kg
in vivo = details: Balb/C, mouse, 1 mg/kg; for half-life: T1/2

SMILES | Half life for reactivation (H1N1 OsR) | ki (H1N1 OsR) | half time for the full inactivation of the sialidase [1] | half time for the full reactivation of the inactivated sialidase [1] | Kd [1] | Ki [1] | khyd [1] | % weight loss mean +/− SD [2] | number of animals remaining [2] | Cytoprotective effect [3] | Cytoprotective effect ([4]; Replicate 2) | Toxicity (MDCK cells) | survival compared to the untreated control group [7] | % weight loss mean +/− SD ([7]; 1 mg/kg) | IC50 (B/Perth wt) | IC50 (sH1N1/08 wt) | IC50 [8] | IC50 (Fukui H3N2 wt) | IC50 [9] | IC50 (sH1N1/01 wt) | further results
CC(=O)NC1C(N)C(F)C(F)(C(=O)O)OC1[C@H](O)[C@H](O)CO (stereo in doubt) [Compound 2eq3eq4NH2, 5-Acetamido-2,4,5-trideoxy-4-amino-2α, 3β-difluoro-α-D-erythro-L-gluco-nonulo-pyranosonate] | 2 h | 4.7 ± 0.1 min⁻¹ |  |  |  |  |  |  |  |  |  |  |  |  |  |  |  |  |  |  | Half life for reactivation (H1N1): 240 min
CC(=O)N[C@@H]1[C@@H](N)[C@@H](F)[C@](F)(C(=O)O)O[C@H]1[C@H](O)[C@H](O)CO [Compound 4, (2R,3R)-4-Amino-2,4-dideoxy-2,3-difluorosialic acid] |  |  | ca. 10 min | 4.8 h | 4 µM | 0.093 µM and 0.0932 µM | 0.0024 min⁻¹ | 2.68 +/− 1.76% | 5 | 9.2 ng/mL | 1074 ng/mL | 3.6 µg/mL | somewhat extend survival | 16.02 +/− 2.07% |  |  |  |  |  |  | concentration of antiviral at which a confluent monolayer of MDCK cells was protected (A/New Caledonia (H1N1)): <12.854^A μM; minimal effective concentration ([3]; Influenza A virus, H3N2, MDCK, read-out: Cytoprotective effect): 0.0069 µg/mL; concentration of antiviral at which a confluent monolayer of MDCK cells was protected (A/Denver (H1N1)): <12.854^A μM; Cytoprotective effect ([4]; Replicate 1): 947 ng/mL; minimal effective concentration ([5]; Influenza A virus, H1N1, MDCK, read-out: Cytoprotective effect): 0.888 µg/mL; minimal effective concentration ([6]; Influenza B virus, MDCK, read-out: Cytoprotective effect): 1.78 µg/mL; concentration of antiviral at which a confluent monolayer of MDCK cells was protected (A/Brisbane NML (H3N2)): 51.415^B μM
CC(=O)NC1C(NC(=N)N)C(F)C(F)(C(=O)O)OC1[C@H](O)[C@H](O)CO (stereo partly drawn) [4-G3Feq diF SA, 5-Acetamido-2,4,5-trideoxy-2α, 3β-difluoro-4-guanidino-α-D-erythro-L-gluco-nonulopyranosonate] | 9 h | 1.5 ± 0.16 min⁻¹ |  |  |  |  |  |  |  |  |  |  |  |  | 0.0045 µM | 0.0068 µM | 0.004 µM | 24.9 µM | 0.002 µM | 0.0126 µM | 
CCOC(=O)C1=C[C@@H](OC(CC)CC)[C@H](NC(C)=O)[C@@H](N)C1 [Oseltamivir] |  |  |  |  |  |  |  |  |  |  |  |  |  |  |  | 0.003 µM | 0.0002 µM | 1.7 µM | 0.0226 µM | 0.0031 µM | IC50 ([10]; Influenza A virus): 0.001 µM
CC(=O)N[C@H]1[C@H]([C@H](O)[C@H](O)CO)OC(C(=O)O)=C[C@@H]1N=C(N)N [Zanamivir, reference compound] |  |  |  |  |  |  |  |  |  | 369.9 ng/mL | 887 ng/mL | 568 µg/mL | significantly extended | 12.24 +/− 2.34% |  | 0.001 µM | 0.0006 µM | 3.8 µM |  | 0.0019 µM | Relative activity [3]: 1.0; Cytoprotective effect [4]: 2219 ng/mL; Relative activity ([4]; Replicate 1): 1.0; Relative activity ([4]; Replicate 2): 1.0; Relative toxicity (MDCK cells): 1.0; Relative activity [5]: 1.0; Relative activity [6]: 1.0; % weight loss mean +/− SD ([7]; 0.1 mg/kg): 16.73 +/− 2.62%; AUC(Lung) (Zanamivir/DFSA-4Gu) ([11]; inhaled or intranasal): 1.07; IC50 [10]: 0.0022 µM; AUC (in vivo; inhaled or intranasal): 4230 ng·h/mL; half-life (in vivo; inhaled or intranasal): 19.1 min
CC(=O)N[C@@H]1C(NC(=N)N)C(F)[C@](F)(C(=O)O)OC1[C@H](O)[C@H](O)CO (stereo partly drawn) [Compound 12, (2R,3R)-4-Guanyl-2,4-dideoxy-2,3-difluorosialic acid] | 116 h | 0.075 ± 0.002 min⁻¹ | ca. 10 min | 6.7 h | 9 µM | 0.07 µM and 0.0704 µM | 0.0017 min⁻¹ | 4.72 +/− 2.78% | 5 | 74 ng/mL |  | 0.9 µg/mL | significantly extended | 10.75 +/− 4.87% | 0.054 µM |  |  | 2010 µM | 0.0066 µM | 0.115 µM | Cinitial [11]: 4954 ng/mL; Cinitial ([11]; iv): 9480 ng/mL; half-life (in vivo; inhaled or intranasal): 17.3 min; half-life (in vivo; iv): 8.3 min
